Test results taken from patent publication US6531446B1, “Peptides having biological activity” (Korea Advanced Institute of Science and Technology, priority 1998, dated 2003).
Like-named read-outs stand apart in the source and are kept apart here. No end group written: not given here.

Experiments:
Format in all cases: cell-based
[1] = test system: Psudomonas putida; assay: Minimal inhibitory concentration, 96-well broth dilution; details: Gram-negative; second part of Table 2
Procedure: (§1) By using the peptides as in Example 1, the minimal inhibitory concentration of the peptides were determined against a variety of microorganisms. Bacteria and fungi were incubated overnight in Mller-Hinton and Saboraud media, respectively, at 37 and 30° C., respectively, and were inoculated in media for 2 hours to a midlogarithmic phase. After diluting the bacteria and fungi to 10^4-10^5 per 1 ml, they were inoculated into a 96-well plate containing serially diluted peptides and incubated for additional 18 hours. The minimal inhibitory concentration was determined at a concentration that inhibits the growth of the microorganisms by measuring the absorbance.

[2] = test system: Saccharomyces cerevisiae
Procedure: as §1

[3] = test system: Cryptococcus neoformans
Procedure: as §1

[4] = test system: Escherichia coli
Procedure: as §1

[5] = test system: Bacillus subtilis
Procedure: as §1

[6] = test system: Streptococcus mutans
Procedure: as §1

[7] = test system: Staphylococcus aureus
Procedure: as §1

[8] = test system: Serratia sp.
Procedure: as §1

[9] = test system: Candida albicans
Procedure: as §1

[10] = test system: Salmonella typhimurium
Procedure: as §1

[11] = test system: Streptococcus pneumoniae
Procedure: as §1

[12] = test system: a variety of microorganisms; assay: Estimation of antimicrobial activity, overall statement in words; details: result in words
Procedure: as §1

[13] = Gram-negative, second part of Table 2
[14] = Gram-positive, second part of Table 2

Substance	Minimal Inhibitory Concentrations [1]	Minimal Inhibitory Concentrations ([2]; Fungi, second part of Table 2)	Minimal Inhibitory Concentrations ([3]; Fungi, second part of Table 2)	Minimal Inhibitory Concentrations [4, 13]	Minimal Inhibitory Concentrations [5, 14]	Minimal Inhibitory Concentrations [6, 14]	Minimal Inhibitory Concentrations [7, 14]	Minimal Inhibitory Concentrations [8, 13]	Minimal Inhibitory Concentrations ([9]; Fungi, second part of Table 2)	Minimal Inhibitory Concentrations [10, 13]	Minimal Inhibitory Concentrations [11, 14]	antimicrobial activity [12]	further results
Arg Ala Gly Leu Gln Phe Pro Val Gly Arg Val His Arg Leu Leu Arg Lys-NH2 (RAGLQFPVGRVHRLLRK-NH2) [Seq No. 16]	2 μg/m	2 μg/m	1 μg/m	2 μg/m	1 μg/m	0.5 μg/m	1 μg/m	1 μg/m	2 μg/m	2 μg/m	1 μg/m		
PVGRVHRLLRK [Seq No. 7]												strong antimicrobial activity	Minimal Inhibitory Concentrations ([2]; 18 h): 50 µg/mL; Minimal Inhibitory Concentrations ([3]; 18 h): 50 µg/mL; Minimal Inhibitory Concentrations ([4]; 18 h): 25 µg/mL; Minimal Inhibitory Concentrations ([5]; 18 h): 25 µg/mL; Minimal Inhibitory Concentrations ([6]; 18 h): 25 µg/mL; Minimal Inhibitory Concentrations ([7]; 18 h): 50 µg/mL; Minimal Inhibitory Concentrations ([8]; 18 h): 25 µg/mL; Minimal Inhibitory Concentrations ([9]; 18 h): 50 µg/mL; Minimal Inhibitory Concentrations ([10]; murium, 18 h): 50 µg/mL; Minimal Inhibitory Concentrations ([11]; 18 h): 50 µg/mL
RAGLQFPVGRLLR [Buf(5-13)[RLLR]]	32 μg/m	32 μg/m	32 μg/m	32 μg/m	32 μg/m	16 μg/m	64 μg/m	32 μg/m	32 μg/m	16 μg/m	32 μg/m		
RAGLQFPVGRLLRRLLR [Buf(5-13)[RLLR]2]	16 μg/m	8 μg/m	4 μg/m	8 μg/m	4 μg/m	16 μg/m	8 μg/m	8 μg/m	4 μg/m	4 μg/m	8 μg/m		
RAGLQFPVGRLLRRLLRRLLR [Seq No. 15]	1 μg/m	4 μg/m	1 μg/m	1 μg/m	1 μg/m	0.5 μg/m	1 μg/m	1 μg/m	2 μg/m	1 μg/m	1 μg/m	especially potent antimicrobial activity	
RKGLQKLVGRVHRLLRK [Seq No. 12]	36 μg/m	4 μg/m	8 μg/m	18 μg/m	18 μg/m	36 μg/m	18 μg/m	4 μg/m	16 μg/m	18 μg/m	18 μg/m		
RLLRRLLRRLLR [(RLLR)3]	16 μg/m	32 μg/m	32 μg/m	32 μg/m	16 μg/m	16 μg/m	16 μg/m	16 μg/m	32 μg/m	16 μg/m	16 μg/m		
RLLRRLLRRLLRRLLR [(RLLR)4]	2 μg/m	8 μg/m	8 μg/m	2 μg/m	2 μg/m	2 μg/m	1 μg/m	1 μg/m	8 μg/m	2 μg/m	2 μg/m	strong antimicrobial activities	
RLLRRLLRRLLRRLLRRLLR [Seq No. 13]	2 μg/m	8 μg/m	8 μg/m	2 μg/m	2 μg/m	2 μg/m	1 μg/m	1 μg/m	8 μg/m	2 μg/m	2 μg/m	strong antimicrobial activities	
RVHRLLRRVHRLLRRVHRLLR [Seq No. 14]	50 μg/m	>200 μg/m	100 μg/m	100 μg/m	6 μg/m	25 μg/m	50 μg/m	3 μg/m	>200 μg/m	50 μg/m	100 μg/m		
